Patent publication US20030228675A1, “ATM related kinase ATX, nucleic acids encoding same and methods of use” (priority 2002, published 2003)

How the values were obtained:
p53 = experiment: Stress-induced p53 Ser-15 phosphorylation and p53 accumulation by immunoblotting; type: cell-based, human; conditions: U2OS treated with the drug
Protocol: To prepare recombinant HA-tagged ATX and ATM proteins, HEK 293T cells were plated onto 60-mm dishes (9×10^5 cells per dish), and were transfected with 5 μg pcDNA3.1 (empty vector), HA-ATXWT, HA-ATXKI, or HA-ATMWT plasmid DNAS. Transfections were performed with the Fugene 6 transfection reagent (Roche), according to the manufacturer's instructions. For NMD assays (see Example 9, below), U2OS cells were seeded onto 100 mm dishes (1×10^6 cells per dish). After 20 h, cells were transfected with 1.5 μg of pmCMV-Gl test plasmid, either Norm or 39Ter (Ishigaki et al., 2001); 1.5 μg of phCMV-MUP reference plasmid (Ishigaki et al., Cell 106:607-617 (2001)); and 7 μg of empty plasmid (pcDNA 3.1), plasmids encoding HA-ATMWT, HA-ATMKI, HA-ATXWT or HA-ATXKI. For antisense transfection experiments, U2OS cells were seeded onto 60 mm dishes (1×10^5 cells per dish) in complete medium supplemented with penicillin/streptomycin. After 30 h, cells were either mock transfected or transfected with sense (S) or antisense (AS) phosphorothioate oligonucleotides (Genset Oligos, La Jolla, Calif.). The S oligonucleotide spans ATX nucleotides 210-229 (5′-[…]-3′), and the AS oligonucleotide is complementary to this sequence (5′-[…]-3′). The cells were transfected with oligonucleotides at final concentrations of 8 μg/ml, with Fugene 6:DNA ratio of 1.6:1. Forty-eight hours after transfection, dishes were exposed to IR, UV-B, or 5-FU, and then harvested for immunoblotting, cell-cycle distribution, or cell survival assays. To examine ATX protein levels in oligonucleotide-treated cells, whole cell extracts were resolved by SDS-PAGE and immunoblotted with α-ATX Ab-1. When oligonucleotide-transfected cells were used for NMD assays, U2OS cells were seeded in culture dishes as described above. The cells were transfected using the Fugene reagent, with 1.5 μg of pmCMV-Gl test plasmid, 0.7 μg of phCMV-MUP reference plasmid, and 24 μg of S or AS oligonucleotide.
A major mediator of stress-induced signaling in mammalian cells is the tumor suppressor protein, p53 (Ko and Prives, Genes and Development 10:1054-1072, (1996); Ryan et al., Curr. Opin. Cell Biol. 13:332-337 (2001)). ATX phosphorylates p53 on Ser-15 (FIG. 1C), a site implicated in the regulation of p53 stability and transcriptional activity (Dumaz and Meek, Curr. Opin. Cell Biol. 13:225-231 (1999); Zhang and Xiong, Science 292:1910-1915 (2001)). Therefore, the possibility that these two proteins are functionally linked during cellular stress responses was investigated. U2OS cells were transiently transfected with a HA-ATXWT or HA-ATXKI expression plasmid, together with a GFP-encoding plasmid to allow for FACS-based enrichment of the transfected cells. The GFP+ cells were then examined for IR-induced stabilization of p53, as well as for specific phosphorylation of this protein on Ser-15. […] In contrast, overexpression of ATXWT enhanced both of these responses in cells exposed to IR.
The recognition of UV light-induced DNA damage occurs primarily during S phase, when pyrimidine dimers and other bulky lesions interfere with replication fork progression (Friedberg, DNA Repair and Mutagenesis (Washington, D.C., ASM Press) (1995); Lindahl and Wood, Cell 103:1121-1131 (1999)).
In order to further define the potential linkage between DNA replicational stress and ATX, the response of AS-treated cells to 5-fluorouracil (5-FU), an S-phase specific cytotoxic agent was examined (Danenberg et al., Seminars in Oncology 26:621-631 (1999); Grem, Investigational New Drugs 18:299-313 (2000)).
Changes in phosphorylation at Ser-15 are typically accompanied by alterations in the expression of the p53 protein, which complicates the interpretation of results obtained by immunoblotting of whole cell extracts with phospho-Ser-15-specific antibodies. […]

ATX [1] = target: T1, ATX (Homo sapiens, UniProt Q96Q15); experiment: Immune complex kinase assay, immunoprecipitated HA-ATXWT pretreated with drug, GST-p53 1-70 phosphorylation; type: biochemical; design: was used to isolate a full-length cDNA encoding a novel member of the PIKK family, termed ATX; made in house; conditions: pretreatment of immunoprecipitated HA-ATXWT; GST-p53 1-70 substrate; read-out: drug concentration required for 50% inhibition (IC50) of ATX activity in vitro
Protocol: With the exception of the TOR proteins, the PIKK family members that bear functional catalytic domains phosphorylate substrates bearing the Ser/Thr-Gln motif (Tibbetts and Abraham, supra, 2000). […] Detergent extracts from the transfected cell populations were immunoprecipitated with α-HA antibody, and protein kinase assays were performed in buffer containing Mn2+, [γ-32P]ATP, and a GST fusion protein containing the first 70 amino acids of p53 (GST-p531-70) as the substrate (FIG. 1C). The GST-p531-70 protein was previously identified as a substrate for ATM and ATR in immune complex kinase assays (Tibbetts et al., Genes and Development 13:152-157 (1999)). […] Based on the ratios of 32P incorporation into substrate to levels of HA-tagged protein kinase, it can be estimated that the specific kinase activity of ATXWT was approximately 3.5-fold higher than that of ATMWT. As observed with ATM as the test kinase (Banin et al., Science 281:1674-1677 (1998); Canman et al., Science 281:1677-1679 (1998); Tibbetts et al., supra, 1999), phosphorylation of GST-p531-70 by ATXWT was nearly abolished by substitution of the Ser-15 residue in p53 with Ala (FIG. 1C, right panel). […] In contrast to the amino-terminal fragment, of p53, the PHAS-I/4E-BP1 protein, which is the prototypical substrate for mTOR, was poorly phosphorylated by HA-ATXWT in immune complex kinase assays (data not shown). […]
Target sequence in this assay (Q96Q15 141-3661): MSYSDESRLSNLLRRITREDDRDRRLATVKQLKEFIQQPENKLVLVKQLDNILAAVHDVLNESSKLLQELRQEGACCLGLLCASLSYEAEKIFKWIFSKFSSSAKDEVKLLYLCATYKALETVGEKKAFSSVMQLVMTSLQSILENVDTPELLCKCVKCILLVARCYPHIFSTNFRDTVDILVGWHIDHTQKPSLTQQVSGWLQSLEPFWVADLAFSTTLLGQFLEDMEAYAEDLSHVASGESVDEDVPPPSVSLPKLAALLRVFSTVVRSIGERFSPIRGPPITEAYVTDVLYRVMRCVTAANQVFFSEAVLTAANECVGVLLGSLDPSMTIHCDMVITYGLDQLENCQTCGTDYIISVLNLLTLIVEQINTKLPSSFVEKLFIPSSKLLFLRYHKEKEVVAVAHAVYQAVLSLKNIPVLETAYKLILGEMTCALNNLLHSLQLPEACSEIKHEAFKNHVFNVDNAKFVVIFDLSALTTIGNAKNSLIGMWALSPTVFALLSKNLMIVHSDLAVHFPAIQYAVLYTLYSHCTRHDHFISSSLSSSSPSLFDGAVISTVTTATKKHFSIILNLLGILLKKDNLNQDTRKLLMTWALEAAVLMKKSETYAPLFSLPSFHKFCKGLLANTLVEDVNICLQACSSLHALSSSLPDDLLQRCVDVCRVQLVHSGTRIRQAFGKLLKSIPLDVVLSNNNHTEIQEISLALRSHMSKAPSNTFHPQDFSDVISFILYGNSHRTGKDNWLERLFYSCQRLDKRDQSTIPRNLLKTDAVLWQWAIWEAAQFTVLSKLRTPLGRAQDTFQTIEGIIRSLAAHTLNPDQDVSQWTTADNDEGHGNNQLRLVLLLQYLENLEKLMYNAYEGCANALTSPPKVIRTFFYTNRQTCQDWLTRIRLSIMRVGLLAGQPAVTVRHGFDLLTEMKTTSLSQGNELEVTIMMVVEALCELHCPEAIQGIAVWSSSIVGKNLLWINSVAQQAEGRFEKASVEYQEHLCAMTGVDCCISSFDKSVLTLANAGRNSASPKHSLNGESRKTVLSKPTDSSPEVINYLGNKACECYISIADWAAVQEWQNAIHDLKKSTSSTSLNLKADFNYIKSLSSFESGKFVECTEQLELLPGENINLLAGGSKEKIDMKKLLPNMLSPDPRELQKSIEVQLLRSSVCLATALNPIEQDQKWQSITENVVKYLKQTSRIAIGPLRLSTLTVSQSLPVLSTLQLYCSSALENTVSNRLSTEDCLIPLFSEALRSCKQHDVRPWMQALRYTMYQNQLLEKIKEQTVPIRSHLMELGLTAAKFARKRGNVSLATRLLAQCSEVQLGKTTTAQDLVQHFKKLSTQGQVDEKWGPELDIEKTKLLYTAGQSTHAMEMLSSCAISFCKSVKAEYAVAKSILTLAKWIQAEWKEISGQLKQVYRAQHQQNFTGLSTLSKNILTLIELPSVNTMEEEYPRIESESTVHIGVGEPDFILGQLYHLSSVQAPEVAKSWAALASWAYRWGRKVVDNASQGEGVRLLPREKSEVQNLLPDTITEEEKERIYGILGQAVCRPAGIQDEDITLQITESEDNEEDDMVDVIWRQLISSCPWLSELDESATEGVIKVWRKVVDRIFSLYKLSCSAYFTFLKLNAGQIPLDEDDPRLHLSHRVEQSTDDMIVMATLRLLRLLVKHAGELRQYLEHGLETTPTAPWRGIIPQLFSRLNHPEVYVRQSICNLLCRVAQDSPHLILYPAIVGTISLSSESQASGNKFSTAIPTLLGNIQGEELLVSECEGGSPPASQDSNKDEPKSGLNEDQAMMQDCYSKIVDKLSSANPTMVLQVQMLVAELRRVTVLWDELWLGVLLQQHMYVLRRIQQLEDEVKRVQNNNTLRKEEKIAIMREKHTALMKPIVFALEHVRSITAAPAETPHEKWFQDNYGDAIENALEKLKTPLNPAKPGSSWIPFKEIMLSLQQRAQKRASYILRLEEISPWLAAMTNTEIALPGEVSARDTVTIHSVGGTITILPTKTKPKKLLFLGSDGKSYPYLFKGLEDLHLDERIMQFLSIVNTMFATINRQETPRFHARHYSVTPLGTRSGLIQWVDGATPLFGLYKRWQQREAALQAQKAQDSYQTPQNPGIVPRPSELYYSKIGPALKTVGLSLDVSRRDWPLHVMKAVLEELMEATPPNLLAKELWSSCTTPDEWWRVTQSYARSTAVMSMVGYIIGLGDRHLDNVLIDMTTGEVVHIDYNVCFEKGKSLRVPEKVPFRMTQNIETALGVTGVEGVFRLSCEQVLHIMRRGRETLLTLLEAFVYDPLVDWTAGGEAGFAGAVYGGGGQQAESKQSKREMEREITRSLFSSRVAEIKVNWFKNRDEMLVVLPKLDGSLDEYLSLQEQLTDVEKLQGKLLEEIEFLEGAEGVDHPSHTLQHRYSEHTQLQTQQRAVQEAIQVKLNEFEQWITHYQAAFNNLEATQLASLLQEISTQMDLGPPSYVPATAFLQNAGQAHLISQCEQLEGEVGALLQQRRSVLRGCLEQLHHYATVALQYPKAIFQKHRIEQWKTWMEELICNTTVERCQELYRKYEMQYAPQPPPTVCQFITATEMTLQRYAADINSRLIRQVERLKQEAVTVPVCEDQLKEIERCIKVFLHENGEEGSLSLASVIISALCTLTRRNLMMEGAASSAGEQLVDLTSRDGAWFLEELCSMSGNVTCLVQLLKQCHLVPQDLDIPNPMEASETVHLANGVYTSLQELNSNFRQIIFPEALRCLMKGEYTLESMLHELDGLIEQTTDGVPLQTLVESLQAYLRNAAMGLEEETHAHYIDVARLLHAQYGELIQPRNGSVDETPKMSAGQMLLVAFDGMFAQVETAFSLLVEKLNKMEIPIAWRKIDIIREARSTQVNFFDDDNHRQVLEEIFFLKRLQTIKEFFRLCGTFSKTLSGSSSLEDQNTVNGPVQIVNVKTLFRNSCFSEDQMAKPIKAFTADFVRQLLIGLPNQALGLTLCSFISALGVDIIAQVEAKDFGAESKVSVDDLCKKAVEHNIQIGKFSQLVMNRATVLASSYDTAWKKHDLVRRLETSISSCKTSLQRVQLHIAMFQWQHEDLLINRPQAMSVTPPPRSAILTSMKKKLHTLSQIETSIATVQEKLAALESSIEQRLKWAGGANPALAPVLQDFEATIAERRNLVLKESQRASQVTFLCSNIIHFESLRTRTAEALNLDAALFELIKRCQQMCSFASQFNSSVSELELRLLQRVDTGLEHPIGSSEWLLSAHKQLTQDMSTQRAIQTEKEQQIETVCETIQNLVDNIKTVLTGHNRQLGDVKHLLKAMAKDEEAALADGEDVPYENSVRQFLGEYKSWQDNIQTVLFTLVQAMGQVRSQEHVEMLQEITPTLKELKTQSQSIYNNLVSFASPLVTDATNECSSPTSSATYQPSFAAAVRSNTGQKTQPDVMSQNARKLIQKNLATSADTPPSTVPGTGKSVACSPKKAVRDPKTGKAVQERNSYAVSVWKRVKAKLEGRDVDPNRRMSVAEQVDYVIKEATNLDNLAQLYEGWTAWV

ATX [2] = target: T1, ATX; experiment: ATX kinase activity after drug treatment of intact U2OS cells, immunoprecipitation of endogenous ATX; type: cell-based; design: immunoprecipitation of endogenous ATX with α-ATX Ab-2; endogenous in cells; host or cells: U2OS osteosarcoma cells; conditions: U2OS cells pretreated for 30 min, endogenous ATX immunoprecipitated with α-ATX Ab-2
From the text: The protein kinase activities of the mammalian PIKKs characteristically display a strong dependence on Mn2+ as a cofactor for the phosphotransferase reaction, and variable sensitivity to inhibition by wortmannin (Abraham, Genes and Development 15:2177-2196 (2001)). In our studies, the protein kinase activity of ATX was also dependent on the addition of Mn2+ the kinase reaction buffer (data not shown). […] Wortmannin is an irreversible inhibitor of PIKKs (Walker et al., Molecular Cells 6:909-919 (2000)) and can be used to assess the potency of this drug as an ATX inhibitor in intact cells. To this end, U2OS osteosarcoma cells were pretreated for 30 min with the indicated concentrations of wortmannin, followed by the preparation of cellular extracts for immunoprecipitation of endogenous ATX with α-ATX Ab-2. […]
For subcellular fractionations, U2OS cells were resuspended in cold homogenization buffer (25 mM Hepes, pH 7.4, 250 mM sucrose, 1 mM EGTA, 5 mM MgCl2, 50 mM NaF, 1 mM DTT, plus protease inhibitors) and Dounce homogenized on ice with 40 strokes in a Tefloncoated homogenizer. […] After separation by SDS-PAGE, the proteins were detected by autoradiography (for kinase reaction products) or by immunoblotting. Proteins immunoblotted with rabbit and mouse antibodies were detected with protein A-horseradish peroxidase (HRP) (Amersham), and sheep anti-mouse IgG-HRP (Amersham), respectively. […]

U2OS cells [3] = experiment: Clonogenic survival assay of oligonucleotide-transfected cells; type: cell-based, human; conditions: non-irradiated, 10 days in culture
Protocol: To address concerns related to potential non-specific effects of ATXKI expression on cellular functions, an antisense oligonucleotide-based approach to reduce the level of ATX expression in U2OS cells was developed. The cells were mock transfected, or transfected with sense (S) or antisense (AS) oligonucleotides, and then treated for 24 h with various genotoxic agents. The cells were then trypsinized and replated, and clonogenic survival was analyzed after 10 days in culture. The results obtained with AS-treated cells were strikingly similar to those obtained with the ATXKI-expressing cells (FIGS. 2A-C). While transfection of U2OS cells with the S oligonucleotide reduced the basal level of colony outgrowth by 25%, treatment with the AS oligonucleotide decreased basal clonogenic activity by 75% (FIG. 2C, right panel). […] The reduction in ATX protein caused by AS treatment ranged from 50-90% in over 10 independent trials.
To prepare recombinant HA-tagged ATX and ATM proteins, HEK 293T cells were plated onto 60-mm dishes (9×10^5 cells per dish), and were transfected with 5 μg pcDNA3.1 (empty vector), HA-ATXWT, HA-ATXKI, or HA-ATMWT plasmid DNAS. Transfections were performed with the Fugene 6 transfection reagent (Roche), according to the manufacturer's instructions. For NMD assays (see Example 9, below), U2OS cells were seeded onto 100 mm dishes (1×10^6 cells per dish). […]
U2OS cells were seeded into 60 mm dishes (1×10^5 cells per dish) in complete medium. […] To quantitate the outgrowth of drug-resistant cells, the Coomassie Blue-bound protein was solubilized at 37° C. with 0.1 M NaOH, and the soluble material was analyzed by absorbance spectroscopy at a wavelength of 590 nm. […] Drug-resistant colonies were stained with Coomassie Blue after 10 days in culture, and the samples were analyzed with Image Pro Plus software to quantitate cell density. […]

U2OS cells [4] = experiment: Cell-cycle distribution by flow cytometry; type: cell-based, human; conditions: 24 h post-irradiation
Protocol: Since p53 plays a central role in activation of the G1 checkpoint, and influences S, G2, and M checkpoints as well (Giaccia and Kastan, Genes & Development 12:2973-2983 (1998); Ko and Prives, supra, 1996), a functional deficiency of ATX might alter the cell-cycle arrest responses to IR and other genotoxic agents. To test this possibility, U2OS cells were pre-treated with S or AS oligonucleotides, exposed to IR, and cell-cycle distributions at 24 h post-irradiation were determined.
The G2 checkpoint inhibitor was added to the culture medium at 8 h prior to harvest for determination of cell-cycle distributions (FIG. 3E, left panel), and immunoblotting for ATX expression (right panel).

Compound: O=c1[nH]cc(F)c(=O)[nH]1 [5-FU, 5-fluorouracil, reference compound]
- Ser-15 phosphorylation of p53 (p53): not accompanied by an increase in Ser-15 phosphorylation
- p53 expression (p53): increased p53 expression to levels similar to those observed in UV-irradiated cells

Compound: COC[C@H]1OC(=O)c2coc3c2[C@@]1(C)C1=C(C3=O)[C@@H]2CCC(=O)[C@@]2(C)C[C@H]1OC(C)=O [wortmannin]
- IC50 (ATX [1]): 0.01 to 0.1 µM
- IC50 (ATX [2]): 1 to 3 µM

Compound: 5′-GAGACAGGAGGGAGCTTGCT-3′ (all phosphorothioate, sugars by position and methylation of C not given here) [S oligonucleotide, reference compound]
- decrease of basal level of colony outgrowth (basal clonogenic activity) (U2OS cells [3]): 25%
- cell-cycle distribution after IR exposure (U2OS cells [4]): accumulated in both G1 and G2/M phases and were cleared out of S phase
